Assay results from patent US9510598B2, “Nitrogen-containing heterocyclic compounds for plant disease control” (BAYER CROPSCIENCE AG, priority 2012, dated 2016).
Where two headings read alike, the source gives them in different places.

Tests used:
[1] = assay type: physicochemical
[2] = test system: Septoria tritici; test: In vivo preventive test on Septoria tritici (leaf spot on wheat); conditions: 500 ppm; wheat plants sprayed 24 hours before contamination; grading 21 to 28 days after contamination vs control plants
Experimental: Wheat plants (“Scipion” variety), sown in starter cups on a 50/50 peat soil-pozzolana substrate and grown at 22° C. (12 h)/20° C. (12 h), are treated at the 1-leaf stage (10 cm height) by spraying with the active ingredient prepared as described above. Plants, used as controls, are treated with the mixture of acetone/tween/DMSO/water not containing the active material. After 24 hours, the plants are contaminated by spraying the leaves with an aqueous suspension of cryopreserved Septoria tritici spores (500 000 spores per ml). […] Grading (% of efficacy) is carried out 21 to 28 days after the contamination, in comparison with the control plants.

[3] = method [a]: HPLC/LC-MS on reversed phase at pH 2.7, 0.1% formic acid in water / acetonitrile, linear gradient 10% to 95% acetonitrile
[4] = HPLC on reversed phase columns, method [a]: pH 2.7, 0.1% formic acid in water / acetonitrile, linear gradient 10% to 95% acetonitrile
[5] = method [a]: HPLC/LC-MS on reversed phase at pH 2.7, 0.1% formic acid in water / acetonitrile, gradient 10% to 95% acetonitrile

| Compound | log P [1, 3] | % of efficacy (protection) [2] | log P [1, 4] | log P [1, 5] |
| --- | --- | --- | --- | --- |
| CC1(C(=O)NCc2ccccc2)CC(c2ccc3ncc(Br)cc3c2)=NO1 (centres unmarked) [compound 91] | 3.21^[a] | 75% |  |  |
| CC1(C(=O)NCc2ccc(Cl)nc2)CC(c2ccc3ncc(Br)cc3c2)=NO1 (centres unmarked) [compound 104] | 2.73^[a] | 92% |  |  |
| Cn1ccc(NC(=O)C2(C(F)(F)F)CC(c3ccc4ncc(Br)cc4c3)=NO2)c1 (centres unmarked) [compound 108] | 3.5^[a] | 75% |  |  |
| C#Cc1cnc2ccc(C3=NOC(C)(C(=O)NCc4ccc5[nH]ccc5c4)C3)cc2c1 (centres unmarked) [compound 115] | 2.63^[a] | 75% |  |  |
| C#Cc1cnc2ccc(C3=NOC(C)(C(=O)NCC4CCC(C(F)(F)F)CC4)C3)cc2c1 (centres unmarked) [compound 121] | 3.61^[a] | 75% |  |  |
| C#Cc1cc2cc(C3=NOC(C)(C(=O)NC(C)C)C3)ccc2nc1OC (centres unmarked) [compound 133] | 3.09^[a] | 100% |  |  |
| C#Cc1cc2cc(C3=NOC(C)(C(=O)NC(C)C)C3)ccc2nc1Cl (centres unmarked) [compound 134] | 3.08^[a] | 71% |  |  |
| CCn1cc(CNC(=O)C2(CBr)CC(c3ccc4ncc(Br)cc4c3)=NO2)c(C)n1 (centres unmarked) [compound 137] | 2.62^[a] | 93% |  |  |
| CCn1cc(CNC(=O)C2(CCl)CC(c3ccc4ncc(Br)cc4c3)=NO2)c(C)n1 (centres unmarked) [compound 138] | 2.56^[a] | 93% |  |  |
| CC(C)NC(=O)C1(C)CC(c2ccc3ncccc3c2)=NO1 (centres unmarked) [compound 143] | 1.44^[a] | 71% |  |  |
| CCn1cc(CNC(=O)C2(C)CC(c3ccc4ncc(C#C[Si](C)(C)C)cc4c3)=NO2)c(C)n1 (centres unmarked) [compound 149] | 3.79^[a] | 93% |  |  |
| Cc1ccc(CNC(=O)C2(C)CC(c3ccc4ncc(Br)cc4c3)=NO2)n1C (centres unmarked) [compound 152] | 3.21^[a] | 71% |  |  |
| C#Cc1cnc2ccc(C3=NOC(C)(C(=O)NCc4ccc(C)n4C)C3)cc2c1 (centres unmarked) [compound 153] | 2.88^[a] | 71% |  |  |
| C#Cc1cnc2ccc(C3=NOC(C)(C(=O)NCc4ccc(Cl)nc4)C3)cc2c1 (centres unmarked) [compound 160] | 2.44^[a] | 71% |  |  |
| Cc1nn(C(C)C)c(C)c1CNC(=O)C1(C)CC(c2ccc3ncc(Br)cc3c2)=NO1 (centres unmarked) [compound 184] | 2.6^[a] | 71% |  |  |
| C#Cc1cnc2ccc(C3=NOC(C)(C(=O)NCc4cnn(-c5ccccc5)n4)C3)cc2c1 (centres unmarked) [compound 189] | 3.11^[a] | 71% |  |  |
| CC1(C(=O)NCc2cn[nH]c2-c2cccs2)CC(c2ccc3ncc(Br)cc3c2)=NO1 (centres unmarked) [compound 191] | 2.51^[a] | 71% |  |  |
| C#Cc1cnc2ccc(C3=NOC(C)(C(=O)NCc4cn[nH]c4-c4cccs4)C3)cc2c1 (centres unmarked) [compound 192] | 2.25^[a] | 71% |  |  |
| C#Cc1cnc2ccc(C3=NOC(C)(C(=O)NCC4CCC(=O)N4C)C3)cc2c1 (centres unmarked) [compound 213] | 1.65^[a] | 97% |  |  |
| C#Cc1cnc2ccc(C3=NOC(C)(C(=O)NCC4CCCOC4c4ccccc4)C3)cc2c1 (centres unmarked) [compound 222] | 3.11^[a] | 71% |  |  |
| C#Cc1cnc2ccc(C3=NOC(C)(C(=O)NCC4CCOc5ccccc54)C3)cc2c1 (centres unmarked) [compound 223] | 3.11^[a] | 71% |  |  |
| CC1(C(=O)NCc2ccc3ncsc3c2)CC(c2ccc3ncc(Br)cc3c2)=NO1 (centres unmarked) [compound 243] |  | 71% | 2.7^[a] |  |
| CCn1cc(CNC(=O)C2(F)CC(c3ccc4ncc(Br)cc4c3)=NO2)c(C)n1 (centres unmarked) [compound 279] |  | 75% | 2.38[a] |  |
| CCn1cc(CNC(=O)C2(C)CC(c3ccc4nc(Cl)c(Br)cc4c3)=NO2)c(C)n1 (centres unmarked) [compound 286] |  | 92% | 3.12[a] |  |
| CC(C)NC(=O)C1(C)CC(c2ccc3nc(Cl)c(Br)cc3c2)=NO1 (centres unmarked) [compound 287] |  | 83% | 3.46[a] |  |

| Compound | log P [1, 3] | % of efficacy (protection) [2] | log P [1, 4] | log P [1, 5] |
| --- | --- | --- | --- | --- |
| COC(CNC(=O)C1(C)CC(c2ccc3ncc(Br)cc3c2)=NO1)OC (centres unmarked) [compound 290] |  | 96% | 2.39[a] |  |
| CC(NC(=O)C1(C)CC(c2ccc3ncc(Br)cc3c2)=NO1)c1ccccc1 (centres unmarked) [compound 292] |  | 96% | 3.46[a] |  |
| CC(NC(=O)C1(C)CC(c2ccc3ncc(Br)cc3c2)=NO1)c1ccccc1Cl (centres unmarked) [compound 294] |  | 70% | 3.85[a] |  |
| CC(NC(=O)C1(C)CC(c2ccc3ncc(Br)cc3c2)=NO1)c1ccsc1 (centres unmarked) [compound 295] |  | 80% | 3.35[a] |  |
| C=Cc1cnc2ccc(C3=NOC(C)(C(=O)NC(C)C)C3)cc2c1 (centres unmarked) [compound 304] |  | 100% | 2.20[a] |  |
| CC1(C(=O)NC2CCOCC2)CC(c2ccc3ncc(Br)cc3c2)=NO1 (centres unmarked) [compound 307] |  | 100% | 2.27[a] |  |
| CC(NC(=O)C1(C)CC(c2ccc3ncc(Br)cc3c2)=NO1)c1nccs1 (centres unmarked) [compound 310] |  | 100% | 2.56[a] |  |
| CCC(NC(=O)C1(C)CC(c2ccc3ncc(Br)cc3c2)=NO1)c1cn(CC)nc1C (centres unmarked) [compound 311] |  | 100% | 2.77[a] |  |
| C#Cc1cnc2ccc(C3=NOC(C)(C(=O)NC(C)(C)C)C3)cc2c1 (centres unmarked) [compound 322] |  | 98% | 3.00[a] |  |
| C#Cc1cnc2ccc(C3=NOC(C)(C(=O)NC(C)c4nc(C(C)C)no4)C3)cc2c1 (centres unmarked) [compound 329] |  | 100% | 2.94[a] |  |
| C#Cc1cnc2ccc(C3=NOC(C)(C(=O)NC(C)C4CC4)C3)cc2c1 (centres unmarked) [compound 330] |  | 100% | 2.78[a] |  |
| CC(C)c1noc(C(C)NC(=O)C2(C)CC(c3ccc4ncc(Br)cc4c3)=NO2)n1 (centres unmarked) [compound 331] |  | 83% | 3.23[a] |  |
| C#Cc1cnc2ccc(C3=NOC(C)(C(=O)NC(C)c4sc(C)nc4C)C3)cc2c1 (centres unmarked) [compound 333] |  | 98% | 2.20[a] |  |
| C#Cc1cnc2ccc(C3=NOC(C)(C(=O)NC(C)c4ccncc4)C3)cc2c1 (centres unmarked) [compound 335] |  | 78% | 1.28[a] |  |
| C#Cc1cnc2ccc(C3=NOC(C)(C(=O)NC(C)c4cccc5ccccc45)C3)cc2c1 (centres unmarked) [compound 339] |  | 78% | 3.85[a] |  |
| C#Cc1cnc2ccc(C3=NOC(C)(C(=O)NC(CC)c4cn(CC)nc4C)C3)cc2c1 (centres unmarked) [compound 347] |  | 100% | 2.52[a] |  |
| C#Cc1cnc2ccc(C3=NOC(C)(C(=O)NC(C)c4ccccc4Cl)C3)cc2c1 (centres unmarked) [compound 349] |  | 94% | 3.42[a] |  |
| C#Cc1cnc2ccc(C3=NOC(C)(C(=O)NC(C)c4ccccc4)C3)cc2c1 (centres unmarked) [compound 350] |  | 100% | 3.06[a] |  |
| C#CCCNC(=O)C1(C)CC(c2ccc3ncc(Br)cc3c2)=NO1 (centres unmarked) [compound 353] |  | 94% | 2.52[a] |  |
| C#Cc1cnc2ccc(C3=NOC(C)(C(=O)NC(c4cccc(Cl)c4)C(F)(F)F)C3)cc2c1 (centres unmarked) [compound 357] |  | 78% | 3.94[a] |  |
| C#Cc1cnc2ccc(C3=NOC(C)(C(=O)NC(CN4CCCC4)C4CC4)C3)cc2c1 (centres unmarked) [compound 361] |  | 78% | 1.37[a] |  |
| COC1(C(=O)N(C)C)CC(c2ccc3ncc(Br)cc3c2)=NO1 (centres unmarked) [compound 396] |  | 97% |  | 2.51[a] |
| COC1(C(=S)NC(C)C)CC(c2ccc3ncc(Br)cc3c2)=NO1 (centres unmarked) [compound 410] |  | 100% |  | 3.69[a] |
| CCOC1(C(=O)NCc2cn(CC)nc2C)CC(c2ccc3ncc(Br)cc3c2)=NO1 (centres unmarked) [compound 416] |  | 100% |  | 1.95[a] |
